pIC50: −log10 of the molar value.
Target: hPAD4 enzyme (Homo sapiens (Human), UniProt Q9UM07)
Assay: RFMS2 assay (RapidFire mass spectrometry, TSTGGRQGSHH peptide substrate)
Format: biochemical
Settings: 35 nM recombinant human PAD4, 500 μM TSTGGRQGSHH peptide, 30 minutes at room temperature; read-out: RFMS 2 IC50
Procedure: Stock compounds were dissolved and stored in 100% DMSO. Compound solutions were prepared via serial dilution at 3-fold intervals in DMSO with top compound concentration at 20 μM in each assay. 0.25 μl of compound solution was transferred from the compound plate to the assay plate by using an acoustic dispenser.
• Total reaction volume: 25 μl • Assay buffer: […] pH 7.4, 200 mM NaCl, 2 mM CaCl2, 5 mM DTT • 35 nM recombinant human PAD4 • 500 μM TSTGGRQGSHH peptide • 1.2% DMSO • Stop solution: 10% formic acid
Reaction mixtures were incubated at room temperature for 30 minutes. 10 μl each of the reaction mixtures was then mixed with 40 μl of 10% formic acid in a microtiter plate. The plate was frozen at −80° C. before shipping out on dry ice for RapidFire mass spectroscopy analysis.
Thawed samples were loaded onto the Rapid Fire 300 system (Agilent) wherein they were first sipped for 250 ms and then loaded onto a Agilent “C” (C18) cartridge using a mobile phase of water containing 0.09% formic acid/0.01% trifluoroacetic acid for 3000 ms desalting flowing at a rate of 1.5 ml/min. Once the samples were loaded and washed, a mobile phase of acetonitrile containing 0.09% formic acid/0.01% trifluoroacetic acid was used to elute the samples directly onto a Sciex API4000 triple quadrupole mass spectrometer for 3000 ms at a flow rate of 1.25 ml/min.
MRM transitions for substrate and product were monitored in positive ESI mode at m/z=562.3/969.7 and m/z=562.8/541.3 respectively. The dwell time for each transition was set at 100 ms, and the ESI voltage was used at 5500 with a source temperature of 650° C. Extracted ion peaks for each transition were integrated using the Rapid Fire Integrator software.
Compounds having an activity designated as “A” provided an IC50≤10 nM; compounds having an activity designated as “B” provided an IC50 11-100 nM; compounds having an activity designated as “C” provided an IC50 101-500 nM; compounds having an activity designated as “D” provided an IC50 501-1000 nM; compounds having an activity designated as “E” provided an IC50>1000 nM.

Sequence of hPAD4 enzyme (Q9UM07 whole entry): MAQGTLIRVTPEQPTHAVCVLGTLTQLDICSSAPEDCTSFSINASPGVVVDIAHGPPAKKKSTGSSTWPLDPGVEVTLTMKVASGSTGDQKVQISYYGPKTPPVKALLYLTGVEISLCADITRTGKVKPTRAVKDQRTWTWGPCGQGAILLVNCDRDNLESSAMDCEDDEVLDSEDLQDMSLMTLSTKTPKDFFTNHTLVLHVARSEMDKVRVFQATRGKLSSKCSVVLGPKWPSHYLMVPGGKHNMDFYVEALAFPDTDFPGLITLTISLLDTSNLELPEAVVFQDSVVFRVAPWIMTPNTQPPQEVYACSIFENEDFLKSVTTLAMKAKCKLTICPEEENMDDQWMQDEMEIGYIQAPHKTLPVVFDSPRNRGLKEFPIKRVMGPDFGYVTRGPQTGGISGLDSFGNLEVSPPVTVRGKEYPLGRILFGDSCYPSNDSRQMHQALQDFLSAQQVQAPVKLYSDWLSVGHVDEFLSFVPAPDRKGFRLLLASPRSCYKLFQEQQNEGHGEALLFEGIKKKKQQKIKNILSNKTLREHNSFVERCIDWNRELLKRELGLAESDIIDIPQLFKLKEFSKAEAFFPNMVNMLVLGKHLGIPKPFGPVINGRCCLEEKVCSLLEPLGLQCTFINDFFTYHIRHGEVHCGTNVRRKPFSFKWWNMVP

pIC50	Compound
6.30 to 7.00	C[C@@H](N)CN1CCc2cc3c(cc2C1=O)nc(-c1cc2cccc(F)c2n1CC1CC1)n3C [Example 30, (R)-6-(2-aminopropyl)-2-(1-(cyclopropylmethyl)-7-fluoro-1H-indol-2-yl)-1-methyl-1,6,7,8-tetrahydro-5H-imidazo[4,5-g]isoquinolin-5-one]
6.00 to 6.30	COc1nccc2cc(-c3nc4cc5c(cc4n3C)CCN(C[C@@H](C)N)C5=O)n(CC3CC3)c12 [Example 31, (R)-6-(2-aminopropyl)-2-(1-(cyclopropylmethyl)-7-methoxy-1H-pyrrolo[2,3-c]pyridin-2-yl)-1-methyl-1,6,7,8-tetrahydro-5H-imidazo[4,5-g]isoquinolin-5-one]
6.30 to 7.00	C[C@@H](N)CN1CCc2cc3c(cc2C1=O)nc(-c1cc2ccc(C#N)cc2n1CC1CC1)n3C [Example 32]
6.30 to 7.00	C[C@@H](N)CN1CCc2cc3c(cc2C1=O)nc(-c1cc2cccc(Cl)c2n1CC1CC1)n3C [Example 33, (R)-6-(2-aminopropyl)-2-(7-chloro-1-(cyclopropylmethyl)-1H-indol-2-yl)-1-methyl-1,6,7,8-tetrahydro-5H-imidazo[4,5-g]isoquinolin-5-one]
6.00 to 6.30	C[C@@H](N)CN1CCc2cc3c(cc2C1=O)nc(-c1cc2cc(Cl)ccc2n1CC1CC1)n3C [Example 34, (R)-6-(2-aminopropyl)-2-(5-chloro-1-(cyclopropylmethyl)-1H-indol-2-yl)-1-methyl-1,6,7,8-tetrahydro-5H-imidazo[4,5-g]isoquinolin-5-one]
6.00 to 6.30	C[C@@H](N)CN1CCc2cc3c(cc2C1=O)nc(-c1cc2cccc(C(F)(F)F)c2n1CC1CC1)n3C [Example 36, (R)-6-(2-aminopropyl)-2-(1-(cyclopropylmethyl)-7-(trifluoromethyl)-1H-indol-2-yl)-1-methyl-1,6,7,8-tetrahydro-5H-imidazo[4,5-g]isoquinolin-5-one]
6.30 to 7.00	CN[C@H](C)CN1CCc2cc3c(cc2C1=O)nc(-c1cc2cccc(OC)c2n1CC1CC1)n3C [Example 37, (R)-2-(1-(cyclopropylmethyl)-7-methoxy-1H-indol-2-yl)-1-methyl-6-(2-(methylamino)propyl)-1,6,7,8-tetrahydro-5H-imidazo[4,5-g]isoquinolin-5-one]
6.30 to 7.00	CC(C)c1ccc2cc(-c3nc4cc5c(cc4n3C)CCN(C[C@@H](C)N)C5=O)n(CC3CC3)c2c1 [Example 38, (R)-6-(2-aminopropyl)-2-(1-(cyclopropylmethyl)-6-isopropyl-1H-indol-2-yl)-1-methyl-1,6,7,8-tetrahydro-5H-imidazo[4,5-g]isoquinolin-5-one]
6.30 to 7.00	CCc1ccc2cc(-c3nc4cc5c(cc4n3C)CCN(C[C@@H](C)N)C5=O)n(CC3CC3)c2c1 [Example 39, (R)-6-(2-aminopropyl)-2-(1-(cyclopropylmethyl)-6-ethyl-1H-indol-2-yl)-1-methyl-1,6,7,8-tetrahydro-5H-imidazo[4,5-g]isoquinolin-5-one]
6.00 to 6.30	C[C@@H](N)CN1CCc2cc3c(cc2C1=O)nc(-c1cc2ccc(C4COC4)cc2n1CC1CC1)n3C [Example 42, (R)-6-(2-aminopropyl)-2-(1-(cyclopropylmethyl)-6-(oxetan-3-yl)-1H-indol-2-yl)-1-methyl-1,6,7,8-tetrahydro-5H-imidazo[4,5-g]isoquinolin-5-one]
6.30 to 7.00	C[C@@H](N)CN1CCc2cc3c(cc2C1=O)nc(-c1cc2ccc(Cl)nc2n1CC1CC1)n3C [Example 43, (R)-6-(2-aminopropyl)-2-(6-chloro-1-(cyclopropylmethyl)-1H-pyrrolo[2,3-b]pyridin-2-yl)-1-methyl-1,6,7,8-tetrahydro-5H-imidazo[4,5-g]isoquinolin-5-one]
6.30 to 7.00	COc1ccc2cc(-c3nc4cc5c(cc4n3C)CCN(C[C@@H](C)N)C5=O)n(CC3CC3)c2n1 [Example 44, (R)-6-(2-aminopropyl)-2-(1-(cyclopropylmethyl)-6-methoxy-1H-pyrrolo[2,3-b]pyridin-2-yl)-1-methyl-1,6,7,8-tetrahydro-5H-imidazo[4,5-g]isoquinolin-5-one]
< 6.00	C[C@@H](N)CN1CCc2cc3c(cc2C1=O)nc(-c1cc2ccc(=O)[nH]c2n1CC1CC1)n3C [Example 45, (R)-6-(2-aminopropyl)-2-(1-(cyclopropylmethyl)-6-oxo-6,7-dihydro-1H-pyrrolo[2,3-b]pyridin-2-yl)-1-methyl-1,6,7,8-tetrahydro-5H-imidazo[4,5-g]isoquinolin-5-one]
6.00 to 6.30	C[C@@H](N)CN1CCc2cc3c(cc2C1=O)nc(-c1c(F)c2ccccc2n1CC1CC1)n3C [Example 46, (R)-6-(2-aminopropyl)-2-(1-(cyclopropylmethyl)-3-fluoro-1H-indol-2-yl)-1-methyl-1,6,7,8-tetrahydro-5H-imidazo[4,5-g]isoquinolin-5-one]
6.30 to 7.00	Cc1ccc2cc(-c3nc4cc5c(cc4n3C)CCN(C[C@H](N)CF)C5=O)n(CC3CC3)c2c1 [Example 47, (S)-6-(2-amino-3-fluoropropyl)-2-(1-(cyclopropylmethyl)-6-methyl-1H-indol-2-yl)-1-methyl-1,6,7,8-tetrahydro-5H-imidazo[4,5-g]isoquinolin-5-one]
< 6.00	Cn1c(-c2cc3cccnc3n2CC2CC2)nc2cc3c(cc21)CCN(C[C@H](N)CF)C3=O [Example 49, (S)-6-(2-amino-3-fluoropropyl)-2-(1-(cyclopropylmethyl)-1H-pyrrolo[2,3-b]pyridin-2-yl)-1-methyl-1,6,7,8-tetrahydro-5H-imidazo[4,5-g]isoquinolin-5-one]
6.30 to 7.00	COc1ccc2cc(-c3nc4cc5c(cc4n3C)CCN(C[C@H](N)CF)C5=O)n(CC3CC3)c2c1 [Example 50, (S)-6-(2-amino-3-fluoropropyl)-2-(1-(cyclopropylmethyl)-6-methoxy-1H-indol-2-yl)-1-methyl-1,6,7,8-tetrahydro-5H-imidazo[4,5-g]isoquinolin-5-one]
6.30 to 7.00	CC(C)c1ccc2cc(-c3nc4cc5c(cc4n3C)CCN(C[C@H](N)CF)C5=O)n(CC3CC3)c2c1 [Example 51, (S)-6-(2-amino-3-fluoropropyl)-2-(1-(cyclopropylmethyl)-6-isopropyl-1H-indol-2-yl)-1-methyl-1,6,7,8-tetrahydro-5H-imidazo[4,5-g]isoquinolin-5-one]
< 6.00	Cn1c(-c2cc3ccncc3n2CC2CC2)nc2cc3c(cc21)CCN(C[C@H](N)CF)C3=O [Example 52, (S)-6-(2-amino-3-fluoropropyl)-2-(1-(cyclopropylmethyl)-1H-pyrrolo[2,3-c]pyridin-2-yl)-1-methyl-1,6,7,8-tetrahydro-5H-imidazo[4,5-g]isoquinolin-5-one]
6.00 to 6.30	COc1nccc2cc(-c3nc4cc5c(cc4n3C)CCN(C[C@H](N)CF)C5=O)n(CC3CC3)c12 [Example 54, (S)-6-(2-amino-3-fluoropropyl)-2-(1-(cyclopropylmethyl)-7-methoxy-1H-pyrrolo[2,3-c]pyridin-2-yl)-1-methyl-1,6,7,8-tetrahydro-5H-imidazo[4,5-g]isoquinolin-5-one]
6.00 to 6.30	Cn1c(-c2cc3ccc(C(C)(C)C)cc3n2CC2CC2)nc2cc3c(cc21)CCN(C[C@H](N)CF)C3=O [Example 55, (S)-6-(2-amino-3-fluoropropyl)-2-(6-(tert-butyl)-1-(cyclopropylmethyl)-1H-indol-2-yl)-1-methyl-1,6,7,8-tetrahydro-5H-imidazo[4,5-g]isoquinolin-5-one]
6.30 to 7.00	Cn1c(-c2cc3ccc(Cl)nc3n2CC2CC2)nc2cc3c(cc21)CCN(C[C@H](N)CF)C3=O [Example 56, (S)-6-(2-amino-3-fluoropropyl)-2-(6-chloro-1-(cyclopropylmethyl)-1H-pyrrolo[2,3-b]pyridin-2-yl)-1-methyl-1,6,7,8-tetrahydro-5H-imidazo[4,5-g]isoquinolin-5-one]
6.30 to 7.00	Cn1c(-c2cc3ccc(C4CC4)nc3n2CC2CC2)nc2cc3c(cc21)CCN(C[C@H](N)CF)C3=O [Example 59, (S)-6-(2-amino-3-fluoropropyl)-2-(6-cyclopropyl-1-(cyclopropylmethyl)-1H-pyrrolo[2,3-b]pyridin-2-yl)-1-methyl-1,6,7,8-tetrahydro-5H-imidazo[4,5-g]isoquinolin-5-one]
6.30 to 7.00	COc1ccc2cc(-c3nc4cc5c(cc4n3C)CCN(C[C@H](N)CF)C5=O)n(CC3CC3)c2n1 [Example 62, (S)-6-(2-amino-3-fluoropropyl)-2-(1-(cyclopropylmethyl)-6-methoxy-1H-pyrrolo[2,3-b]pyridin-2-yl)-1-methyl-1,6,7,8-tetrahydro-H-imidazo[4,5-g]isoquinolin-5-one]

Reference: patent US20250346592A1 (Celgene Corporation, priority 2022, published 2025)
